Tests used:
Format in all cases: in vivo
Agrostis tenuis (AGSTE) = assay: Herbicidal early post-emergence action (Table A1); details: 1900 g/ha; scored visually 9 to 12 days after treatment; 100% = plants have died, 0% = like control plants
Protocol: (§1) Seeds of monocotyledonous and dicotyledonous weed plants were placed in 96-well microtiter plates in quartz sand and grown in a climatized chamber under controlled growth conditions. 5 to 7 days after sowing, the test plants were treated at the cotyledon stage. The compounds according to the invention, formulated in the form of emulsion concentrates (EC), were applied with a water application rate of the equivalent of 2200 liters per hectare. After the test plants had been left to stand in the climatized chamber for 9 to 12 days under optimum growth conditions, the effect of the preparations was scored visually in comparison to untreated controls. For example, 100% activity=the plants have died, 0% activity=like control plants. Tables A1 to A8 below show the effects of selected compounds of the general formula (I) according to Table 1 on various harmful plants and an application rate corresponding to 1900 g/ha, which were obtained by the experimental procedure mentioned above.

[1] = tested on: harmful plants AGSTE, DIPTE, LOLPE, MATCH, POAAN, SETVI, STEME and VERPE; assay: Herbicidal early post-emergence action, summary of Tables A1-A8; details: application rate of 1900 g of active ingredient per hectare; summary in words
Protocol: as §1, with “plants.” for “plants. Tables A1 to A8 below show the effects of selected compounds of the general formula (I) according to Table 1 on various harmful plants and an application rate corresponding to 1900 g/ha, which were obtained by the experimental procedure mentioned above.”
Tables A1 to A8 below show the effects of selected compounds of the general formula (I) according to Table 1 on various harmful plants and an application rate corresponding to 1900 g/ha, which were obtained by the experimental procedure mentioned above.
As the results of Tables A1-A8 show, compounds no.

[2] = tested on: Amaranthus retroflexus (AMARE); assay: Herbicidal post-emergence action (Table B6); details: visual rating about 3 weeks after treatment, 100% = plants have died, 0% = like control plants
Procedure, shortened: (§2)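 Activity was scored visually against untreated plants roughly 3 weeks after treatment, 0% meaning like control and 100% plant death. Application was post-emergence onto green parts at the one-leaf stage, as aqueous suspension/emulsion with 0.5% additive, 600 l/ha, delivering 1280 or 320 g/ha to greenhouse plants in sandy loam.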

Stellaria media (STEME) [3] = assay: Herbicidal post-emergence action (Table B8); details: dosage 1280 g/ha; visual rating about 3 weeks after treatment; 100% = plants have died, 0% = like control plants
Procedure, shortened: as §2

Bassia scoparia (KCHSC) = assay: Herbicidal post-emergence action (Table B11); details: dosage 1280 g/ha; visual rating about 3 weeks after treatment; 100% = plants have died, 0% = like control plants
Protocol: Seeds of mono- and dicotyledonous weed plants were placed in plastic pots in sandy loam soil (doubly sown with in each case one species of mono- or dicotyledonous weed plants per pot), covered with soil and cultivated in a greenhouse under controlled growth conditions. 2 to 3 weeks after sowing, the test plants were treated at the one-leaf stage. The compounds of the invention, formulated in the form of wettable powders (WP) or as emulsion concentrates (EC), were applied onto the green parts of the plants as aqueous suspension or emulsion with addition of 0.5% additive at a water application rate of 600 liters per hectare (converted). After the test plants had been kept in the greenhouse under optimum growth conditions for about 3 weeks, the activity of the preparations was rated visually in comparison to untreated controls. For example, 100% activity=the plants have died, 0% activity=like control plants. Tables B1 to B12 below show the effects of selected compounds of the general formula (I) according to Table 1 on various harmful plants and an application rate corresponding to 1280 or 320 g/ha, which were obtained by the experimental procedure mentioned above.

Veronica persica (VERPE) [4] = assay: Herbicidal post-emergence action (Table B12); details: visual rating about 3 weeks after treatment, 100% = plants have died, 0% = like control plants
Procedure, shortened: as §2

Lolium rigidum (LOLRI) = assay: Herbicidal pre-emergence action, test C (Table C2); details: dosage 1280 g/ha; visual scoring after about 3 weeks; 100% = plants have died, 0% = like control plants
From the text: (§3) Seeds of mono- and dicotyledonous weed plants were placed in plastic pots in sandy loam soil (doubly sown with one species each of mono- or dicotyledonous weed plants per pot) and covered with soil. The compounds of the invention, formulated in the form of wettable powders (WP) or as emulsion concentrates (EC), were then applied onto the surface of the covering soil as aqueous suspension or emulsion with addition of 0.5% additive at a water application rate of 600 liters per hectare (converted). After the treatment, the pots were placed in a greenhouse and kept under good growth conditions for the test plants. After about 3 weeks, the effect of the preparations was scored visually in comparison with untreated controls as percentages. For example, 100% activity=the plants have died, 0% activity=like control plants. Tables C1 to C12 below show the effects of selected compounds of the general formula (I) according to Table 1 on various harmful plants and an application rate corresponding to 1280 or 320 g/ha, which were obtained by the experimental procedure mentioned above.

Poa annua (POAAN) = assay: Herbicidal pre-emergence action, test C (Table C3); details: visual scoring after about 3 weeks, 100% = plants have died, 0% = like control plants
Procedure, shortened: (§4)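 Visual percentage damage relative to untreated pots (0% = like control, 100% = dead) was rated roughly 3 weeks after pre-emergence treatment in the greenhouse. Sandy loam pots were sown with weed seeds and covered with soil. The surface was sprayed with WP or EC formulations plus 0.5% additive at 600 L/ha, delivering 1280 or 320 g/ha.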

Setaria viridis (SETVI) = assay: Herbicidal pre-emergence action, test C (Table C4); details: dosage 1280 g/ha; visual scoring after about 3 weeks; 100% = plants have died, 0% = like control plants
Procedure, shortened: as §4

[5] = tested on: Abutilon theophrasti (ABUTH); assay: Herbicidal pre-emergence action, test C (Table C5); details: dosage 1280 g/ha; visual scoring after about 3 weeks; 100% = plants have died, 0% = like control plants
Procedure, shortened: as §4

[6] = tested on: Amaranthus retroflexus (AMARE); assay: Herbicidal pre-emergence action, test C (Table C6); details: visual scoring after about 3 weeks, 100% = plants have died, 0% = like control plants
Procedure, shortened: as §4

[7] = tested on: Matricaria inodora (MATIN); assay: Herbicidal pre-emergence action, test C (Table C7); details: dosage 1280 g/ha; visual scoring after about 3 weeks; 100% = plants have died, 0% = like control plants
Procedure, shortened: as §4

Stellaria media (STEME) [8] = assay: Herbicidal pre-emergence action, test C (Table C8); details: dosage 1280 g/ha; visual scoring after about 3 weeks; 100% = plants have died, 0% = like control plants
Procedure, shortened: as §4

[9] = tested on: Digitaria sanguinalis (DIGSA); assay: Herbicidal pre-emergence action, test C (Table C10); details: dosage 1280 g/ha; visual scoring after about 3 weeks; 100% = plants have died, 0% = like control plants
Procedure, shortened: as §4

Veronica persica (VERPE) [10] = assay: Herbicidal pre-emergence action, test C (Table C12); details: visual scoring vs untreated controls
Procedure, shortened: as §4

[11] = tested on: harmful plants ABUTH, AMARE, ECHCG, LOLRI, MATIN, POAAN, SETVI, STEME, ALOMY, DIGSA, KCHSC and VERPE; assay: Herbicidal post-emergence action, summary of Tables B1-B12; details: application rate of 1280 or 320 g of active ingredient per hectare; summary in words
Procedure, shortened: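 Activity scored by eye roughly 3 weeks post-treatment against untreated plants, from 0% (no effect) to 100% (plants dead). Application rates were 1280 or 320 g/ha, as aqueous WP/EC spray plus 0.5% additive at 600 L/ha, onto one-leaf-stage weeds grown 2–3 weeks in sandy loam.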

[12] = tested on: harmful plants ABUTH, AMARE, ECHCG, LOLRI, MATIN, POAAN, SETVI, STEME, ALOMY, DIGSA, KCHSC and VERPE; assay: Herbicidal pre-emergence action (test C), summary of Tables C1-C12; details: application rate of 1280 or 320 g of active ingredient per hectare; summary in words
Procedure, shortened: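 Visual % damage versus untreated plants (0% = like control, 100% = died) was scored after about 3 weeks in the greenhouse. Before emergence, seeds sown in sandy loam got a soil-surface spray of compound as WP or EC plus 0.5% additive, using 600 L/ha water at rates of 1280 or 320 g/ha.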

[13] = tested on: Abutilon theophrasti (ABUTH); assay: Herbicidal post-emergence action (Table B5); details: 1280 g/ha; rated visually after about 3 weeks; 100% = plants have died, 0% = like control plants
Procedure, shortened: as §2

[14] = tested on: Echinochloa crus-galli (ECHCG); assay: Herbicidal pre-emergence action, test C (Table C1); details: dosage 1280 g/ha; visual scoring after about 3 weeks; 100% = plants have died, 0% = like control plants
From the text: as §3

With FC(F)(F)c1cccc(-c2ccccc2Oc2ccccn2)n1 [Example 1-50] the “Early post-emergence effect against Agrostis tenuis (AGSTE)” value (“Early post-emergence effect” below) (Agrostis tenuis (AGSTE)) was 80% and the “herbicidal activity against the harmful plants of Tables A1-A8 in early post-emergence treatment” value [1] was “very good herbicidal activity”.
Fc1cccc(Oc2ncc(Cl)cc2Cl)c1-c1cc(C(F)F)on1 [Example 1-12] was tested, and the “Early post-emergence effect” value (Agrostis tenuis (AGSTE)) was 80% and the “herbicidal activity against the harmful plants of Tables A1-A8 in early post-emergence treatment” value [1] was “very good herbicidal activity”.
In the case of Fc1ccc(Oc2ccc(Cl)cn2)c(-c2cc(C(F)F)on2)c1 [Example 1-30], the “Early post-emergence effect” value (Agrostis tenuis (AGSTE)) is reported as 80% and the “herbicidal activity against the harmful plants of Tables A1-A8 in early post-emergence treatment” value [1] is reported as “very good herbicidal activity”.
In the case of Cn1nc(-c2c(F)cccc2Oc2ccc(Cl)cn2)cc1C(F)F [Example 1-64], the “Post-emergence action against Amaranthus retroflexus (AMARE)” value (“Post-emergence action … (AMARE)” below) ([2]; dosage 320 g/ha) is reported as 100%, the “Post-emergence action … (AMARE)” value ([2]; dosage 1280 g/ha) is reported as 100% and the “Post-emergence action against Stellaria media (STEME)” value (Stellaria media (STEME) [3]) is reported as 100%. The “Post-emergence action against Bassia scoparia (KCHSC)” value (Bassia scoparia (KCHSC)) was 90%, the “Post-emergence action against Veronica persica (VERPE)” value (Veronica persica (VERPE) [4]; dosage 320 g/ha) was 90% and the “Post-emergence action against Veronica persica (VERPE)” value (Veronica persica (VERPE) [4]; dosage 1280 g/ha) was 90%. For the same compound, the “Pre-emergence action against Lolium rigidum (LOLRI)” value (Lolium rigidum (LOLRI)) was 90%, the “Pre-emergence action against Poa annua (POAAN)” value (shortened to “Pre-emergence action … (POAAN)”) (Poa annua (POAAN); dosage 320 g/ha) was 90% and the “Pre-emergence action … (POAAN)” value (Poa annua (POAAN); dosage 1280 g/ha) was 100%. For the same compound, the “Pre-emergence action against Setaria viridis (SETVI)” value (Setaria viridis (SETVI)) was 100%, the “Pre-emergence action against Abutilon theophrasti (ABUTH)” value [5] was 90% and the “Pre-emergence action against Amaranthus retroflexus (AMARE)” value (“Pre-emergence action … (AMARE)” below) ([6]; dosage 320 g/ha) was 100%. The “Pre-emergence action … (AMARE)” value ([6]; dosage 1280 g/ha) was 100%, the “Pre-emergence action against Matricaria inodora (MATIN)” value [7] was 90% and the “Pre-emergence action against Stellaria media (STEME)” value (Stellaria media (STEME) [8]) was 100%. The “Pre-emergence action against Digitaria sanguinalis (DIGSA)” value [9] was 90%, the “Pre-emergence action against Veronica persica (VERPE)” value (Veronica persica (VERPE) [10]; dosage 320 g/ha) was 90% and the “Pre-emergence action against Veronica persica (VERPE)” value (Veronica persica (VERPE) [10]; dosage 1280 g/ha) was 100%. For the same compound, the “herbicidal activity against the harmful plants of Tables B1-B12 in post-emergence treatment” value [11] was “very good herbicidal activity” and the “herbicidal activity against the harmful plants of Tables C1-C12 in pre-emergence treatment” value [12] was “very good herbicidal activity”.
In the case of Cn1nc(C(F)F)cc1-c1c(F)cccc1Oc1ncc(Cl)cc1F [Example 1-82], the “Early post-emergence effect” value (Agrostis tenuis (AGSTE)) is reported as 80% and the “herbicidal activity against the harmful plants of Tables A1-A8 in early post-emergence treatment” value [1] is reported as “very good herbicidal activity”.
N#Cc1ccc(Oc2cccc(F)c2-c2cc(C(F)F)on2)nc1 [Example 1-11] was tested, and the “Post-emergence action against Abutilon theophrasti (ABUTH)” value [13] was 100%, the “Post-emergence action … (AMARE)” value ([2]; dosage 320 g/ha) was 100% and the “Post-emergence action … (AMARE)” value ([2]; dosage 1280 g/ha) was 100%. The “Pre-emergence action against Echinochloa crus-galli (ECHCG)” value [14] was 90%, the “Pre-emergence action … (POAAN)” value (Poa annua (POAAN); dosage 1280 g/ha) was 90% and the “Pre-emergence action against Setaria viridis (SETVI)” value (Setaria viridis (SETVI)) was 90%. The “Pre-emergence action against Abutilon theophrasti (ABUTH)” value [5] was 100%, the “Pre-emergence action … (AMARE)” value ([6]; dosage 1280 g/ha) was 100% and the “Pre-emergence action against Matricaria inodora (MATIN)” value [7] was 90%. The “Pre-emergence action against Stellaria media (STEME)” value (Stellaria media (STEME) [8]) was 100%, the “herbicidal activity against the harmful plants of Tables B1-B12 in post-emergence treatment” value [11] was “very good herbicidal activity” and the “herbicidal activity against the harmful plants of Tables C1-C12 in pre-emergence treatment” value [12] was “very good herbicidal activity”.
With Oc1ccc(-c2cc(C(F)F)no2)c(Oc2ccc(Cl)cn2)c1 [Example 1-42] the “Early post-emergence effect” value (Agrostis tenuis (AGSTE)) was 80% and the “herbicidal activity against the harmful plants of Tables A1-A8 in early post-emergence treatment” value [1] was “very good herbicidal activity”.
For Fc1cccc(Oc2ncc(C(F)(F)F)cc2Cl)c1-c1cc(C(F)F)on1 [Example 1-13], the “Early post-emergence effect” value (Agrostis tenuis (AGSTE)) was 80% and the “herbicidal activity against the harmful plants of Tables A1-A8 in early post-emergence treatment” value [1] was “very good herbicidal activity”.

Source: patent publication US12052991B2, “Substituted pyridinyloxybenzenes and salts thereof and use thereof as herbicidal agents” (Bayer Aktiengesellschaft, priority 2018, dated 2024)
